Values joined by “and” are separate entries in the source; they are usually repeats but may differ in a detail not shown here. Identical values can stand only once. Inconclusive results and toxic doses are left out. Cut-off read from the data, not from the text of the source: active = T/C of 150% or more; inactive = T/C below 125%.
Tested on: L1210 leukemia ip in BDF1 mice, survival T/C
Test: NCI In Vivo Anticancer Drug Screen. Data for tumor model L1210 Leukemia (intraperitoneal) in B6D2F1 (BDF1) mice
Conditions: endpoint: mean survival time, higher = longer survival
In short: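 Survival endpoint. Drug-treated group vs vehicle group, expressed as T divided by C. Tumor passaged by transplantation.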

[1] = dose: 50.0 mg/kg/injection, schedule: Q01DX009 (ip), vehicle: saline
[2] = dose: 100.0 mg/kg/injection, schedule: Q01DX009 (ip), vehicle: saline
[3] = dose: 200.0 mg/kg/injection, schedule: Q04DX003 (ip), vehicle: saline
[4] = dose: 100.0 mg/kg/injection, schedule: Q04DX002 (ip), vehicle: Klucel (hydroxypropylcellulose) (HPC)
[5] = dose: 200.0 mg/kg/injection, schedule: Q04DX002 (ip), vehicle: Klucel (hydroxypropylcellulose) (HPC)
[6] = dose: 100.0 mg/kg/injection, schedule: Q01DX009 (ip), vehicle: Klucel (hydroxypropylcellulose) (HPC)
[7] = dose: 50.0 mg/kg/injection, schedule: Q04DX003 (ip), vehicle: saline
[8] = dose: 100.0 mg/kg/injection, schedule: Q01DX009 (ip), vehicle: saline with Tween-80
[9] = dose: 100.0 mg/kg/injection, schedule: Q04DX003 (ip), vehicle: saline with Tween-80
[10] = dose: 200.0 mg/kg/injection, schedule: Q04DX003 (ip), vehicle: saline with Tween-80
[11] = dose: 400.0 mg/kg/injection, schedule: Q04DX003 (ip), vehicle: saline with Tween-80
[12] = dose: 25.0 mg/kg/injection, schedule: Q01DX009 (ip), vehicle: saline with Tween-80

Measured: T/C

OCCCN1CCC2(CC1)SSC1(CCN(CCCO)CC1)S2
inactive: [1] 95 % of control | [2] 101 % of control | dose: 100.0 mg/kg/injection, schedule: Q04DX003 (ip), vehicle: saline 95 % of control | [3] 98 % of control

O=C1OC(c2ccccc2)=N/C1=C\c1cccnc1
inactive: dose: 50.0 mg/kg/injection, schedule: Q04DX002 (ip), vehicle: Klucel (hydroxypropylcellulose) (HPC) 90 % of control | [4] 96 % of control | [5] 86 % of control | dose: 400.0 mg/kg/injection, schedule: Q04DX002 (ip), vehicle: Klucel (hydroxypropylcellulose) (HPC) 86 % of control

Nc1nc(N)c2nc(CO)cnc2n1
inactive: dose: 12.5 mg/kg/injection, schedule: Q01DX009 (ip), vehicle: Klucel (hydroxypropylcellulose) (HPC) 98 % of control | dose: 25.0 mg/kg/injection, schedule: Q01DX009 (ip), vehicle: Klucel (hydroxypropylcellulose) (HPC) 102 % of control | dose: 50.0 mg/kg/injection, schedule: Q01DX009 (ip), vehicle: Klucel (hydroxypropylcellulose) (HPC) 101 % of control and 105 % of control | [6] 101 % of control

CCCC#CCOCC(O)CCl (configuration not stated)
inactive: dose: 100.0 mg/kg/injection, schedule: Q01DX009 (ip), vehicle: saline sonified 105 % of control | dose: 100.0 mg/kg/injection, schedule: Q04DX003 (ip), vehicle: saline sonified 91 % of control | dose: 200.0 mg/kg/injection, schedule: Q01DX009 (ip), vehicle: saline sonified 101 % of control | dose: 200.0 mg/kg/injection, schedule: Q04DX003 (ip), vehicle: saline sonified 94 % of control | dose: 400.0 mg/kg/injection, schedule: Q01DX009 (ip), vehicle: saline sonified 105 % of control | dose: 400.0 mg/kg/injection, schedule: Q04DX003 (ip), vehicle: saline sonified 94 % of control

O=C(Nc1ccc(Cl)c(Cl)c1)Nc1cccc2nsnc12
inactive: [6] 92 % of control | dose: 200.0 mg/kg/injection, schedule: Q01DX009 (ip), vehicle: Klucel (hydroxypropylcellulose) (HPC) 92 % of control | dose: 400.0 mg/kg/injection, schedule: Q01DX009 (ip), vehicle: Klucel (hydroxypropylcellulose) (HPC) 92 % of control

CCc1ccccc1N1CCN(C(=O)c2cc(OC)c(OC)c(OC)c2)CC1
inactive: dose: 25.0 mg/kg/injection, schedule: Q01DX009 (ip), vehicle: saline 100 % of control | [1] 102 % of control and 105 % of control | dose: 50.0 mg/kg/injection, schedule: Q01DX Z (ip), vehicle: carboxymethylcellulose (CMC) 104 % of control | dose: 50.0 mg/kg/injection, schedule: Q04DX003 (ip), vehicle: acetone 98 % of control | [7] 94 % of control | dose: 74.0 mg/kg/injection, schedule: Q01DX009 (ip), vehicle: saline 100 % of control | dose: 74.0 mg/kg/injection, schedule: Q01DX Z (ip), vehicle: carboxymethylcellulose (CMC) 107 % of control | dose: 74.0 mg/kg/injection, schedule: Q04DX003 (ip), vehicle: saline 92 % of control | dose: 100.0 mg/kg/injection, schedule: Q01DX001 (ip), vehicle: saline 100 % of control | [2] 114 % of control | dose: 100.0 mg/kg/injection, schedule: Q04DX003 (ip), vehicle: acetone 97 % of control | dose: 112.0 mg/kg/injection, schedule: Q01DX009 (ip), vehicle: saline 97 % of control | dose: 112.0 mg/kg/injection, schedule: Q01DX Z (ip), vehicle: carboxymethylcellulose (CMC) 102 % of control | dose: 112.0 mg/kg/injection, schedule: Q04DX003 (ip), vehicle: saline 99 % of control | dose: 168.0 mg/kg/injection, schedule: Q01DX009 (ip), vehicle: saline 108 % of control | dose: 168.0 mg/kg/injection, schedule: Q04DX003 (ip), vehicle: saline 97 % of control and 99 % of control | dose: 200.0 mg/kg/injection, schedule: Q01DX001 (ip), vehicle: saline 103 % of control | dose: 200.0 mg/kg/injection, schedule: Q01DX009 (ip), vehicle: saline 100 % of control | [3] 103 % of control | dose: 225.0 mg/kg/injection, schedule: Q01DX009 (ip), vehicle: saline 97 % of control | dose: 250.0 mg/kg/injection, schedule: Q04DX003 (ip), vehicle: saline 103 % of control

CC(=O)Oc1oc(-c2ccccc2)nc1-c1ccccc1
inactive: [8] 108 % of control | [9] 98 % of control | dose: 200.0 mg/kg/injection, schedule: Q01DX009 (ip), vehicle: saline with Tween-80 94 % of control | [10] 100 % of control | dose: 400.0 mg/kg/injection, schedule: Q01DX009 (ip), vehicle: saline with Tween-80 97 % of control | [11] 104 % of control

C[N+](C)(C)CSSC[N+](C)(C)C
inactive: dose: 12.5 mg/kg/injection, schedule: Q04DX003 (ip), vehicle: saline 92 % of control | dose: 25.0 mg/kg/injection, schedule: Q04DX003 (ip), vehicle: saline 87 % of control | [7] 93 % of control

CC(C)=CCCC1(C)C=Cc2c(c(C)cc3c2[nH]c2ccccc23)O1 (configuration not stated)
inactive: dose: 25.0 mg/kg/injection, schedule: Q04DX002 (ip), vehicle: gum acacia 96 % of control | dose: 50.0 mg/kg/injection, schedule: Q04DX002 (ip), vehicle: gum acacia 89 % of control | dose: 100.0 mg/kg/injection, schedule: Q04DX002 (ip), vehicle: gum acacia 99 % of control

N#CS/C=C\C(=O)O
inactive: dose: 3.12 mg/kg/injection, schedule: Q01DX001 (ip), vehicle: saline with Tween-80 95 % of control and 101 % of control | dose: 3.12 mg/kg/injection, schedule: Q01DX009 (ip), vehicle: saline with Tween-80 93 % of control | dose: 3.12 mg/kg/injection, schedule: Q04DX003 (ip), vehicle: saline with Tween-80 107 % of control | dose: 6.25 mg/kg/injection, schedule: Q01DX001 (ip), vehicle: saline with Tween-80 95 % of control and 101 % of control | dose: 6.25 mg/kg/injection, schedule: Q01DX009 (ip), vehicle: saline with Tween-80 98 % of control and 102 % of control | dose: 6.25 mg/kg/injection, schedule: Q04DX003 (ip), vehicle: saline with Tween-80 96 % of control and 100 % of control | dose: 12.5 mg/kg/injection, schedule: Q01DX001 (ip), vehicle: saline with Tween-80 94 % of control and 103 % of control and 105 % of control | dose: 12.5 mg/kg/injection, schedule: Q01DX009 (ip), vehicle: saline with Tween-80 95 % of control and 102 % of control | dose: 12.5 mg/kg/injection, schedule: Q04DX003 (ip), vehicle: saline with Tween-80 102 % of control and 103 % of control | dose: 25.0 mg/kg/injection, schedule: Q01DX001 (ip), vehicle: saline with Tween-80 94 % of control and 103 % of control | [12] 100 % of control and 92 % of control | dose: 25.0 mg/kg/injection, schedule: Q04DX003 (ip), vehicle: saline with Tween-80 93 % of control and 98 % of control | dose: 50.0 mg/kg/injection, schedule: Q01DX001 (ip), vehicle: saline with Tween-80 100 % of control | dose: 50.0 mg/kg/injection, schedule: Q04DX003 (ip), vehicle: saline with Tween-80 97 % of control

O=C(O)COc1ccc(Cl)cc1I
inactive: [4] 120 % of control | [5] 97 % of control

CC(/C=C/c1ccccc1Cl)=N\NC(=O)c1ccncc1
inactive: dose: 100.0 mg/kg/injection, schedule: Q01DX001 (ip), vehicle: saline with Tween-80 95 % of control | dose: 200.0 mg/kg/injection, schedule: Q01DX001 (ip), vehicle: saline with Tween-80 95 % of control | dose: 400.0 mg/kg/injection, schedule: Q01DX001 (ip), vehicle: saline with Tween-80 90 % of control

CCC1(c2ccccc2)C(=O)N(Cl)C(=O)N(Cl)C1=O
inactive: [12] 98 % of control | dose: 50.0 mg/kg/injection, schedule: Q01DX009 (ip), vehicle: saline with Tween-80 98 % of control | [8] 93 % of control

CC(C)CCCC(C)C1CCC2C3CC(=O)NC45CC4CCC5(C)C3CCC12C (configuration not stated)
inactive: [9] 116 % of control | [10] 97 % of control | [11] 92 % of control

CCOC(=O)C12CCC(C(=O)O)(CC1)CC2
inactive: dose: 75.0 mg/kg/injection, schedule: Q04DX002 (ip), vehicle: Klucel (hydroxypropylcellulose) (HPC) 100 % of control | dose: 150.0 mg/kg/injection, schedule: Q04DX002 (ip), vehicle: Klucel (hydroxypropylcellulose) (HPC) 106 % of control | dose: 300.0 mg/kg/injection, schedule: Q04DX002 (ip), vehicle: Klucel (hydroxypropylcellulose) (HPC) 110 % of control
